PubChem BioAssay AID248 (DTP/NCI, 2004)
Values joined by “and” are separate entries in the source; they are usually repeats but may differ in a detail not shown here. Equal entries are not always repeated. Inconclusive results and toxic doses are left out.

Tested on: L1210 leukemia ip in BDF1 mice, survival T/C
Experiment: NCI In Vivo Anticancer Drug Screen. Data for tumor model L1210 Leukemia (intraperitoneal) in B6D2F1 (BDF1) mice
Conditions: endpoint: mean survival time, higher = longer survival
Method in brief: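 Survival endpoint. Drug-treated group vs vehicle group, expressed as T divided by C. Tumor passaged by transplantation.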

[1] = dose: 50.0 mg/kg/injection, schedule: Q01DX001 (ip), vehicle: carboxymethylcellulose (CMC)
[2] = dose: 200.0 mg/kg/injection, schedule: Q01DX001 (ip), vehicle: carboxymethylcellulose (CMC)
[3] = dose: 50.0 mg/kg/injection, schedule: Q01DX001 (ip), vehicle: saline
[4] = dose: 100.0 mg/kg/injection, schedule: Q01DX001 (ip), vehicle: saline
[5] = dose: 200.0 mg/kg/injection, schedule: Q01DX001 (ip), vehicle: saline
[6] = dose: 400.0 mg/kg/injection, schedule: Q01DX001 (ip), vehicle: saline
[7] = dose: 100.0 mg/kg/injection, schedule: Q04DX002 (ip), vehicle: saline with Tween-80
[8] = dose: 200.0 mg/kg/injection, schedule: Q04DX002 (ip), vehicle: saline with Tween-80
[9] = dose: 400.0 mg/kg/injection, schedule: Q04DX002 (ip), vehicle: saline with Tween-80

CN1CCC(c2ccccc2)(c2ccccc2)OC1
T/C (dose: 100.0 mg/kg/injection, schedule: Q04DX003 (ip), vehicle: saline with Tween-80): 94 % of control

CCCCCCCCCCCCCCCCCCNC(=O)Oc1ccc(Cl)c(C)c1
T/C (dose: 100.0 mg/kg/injection, schedule: Q01DX009 (ip), vehicle: Klucel (hydroxypropylcellulose) (HPC)): 88 % of control
T/C (dose: 100.0 mg/kg/injection, schedule: Q04DX003 (ip), vehicle: gum acacia): 88 % of control
T/C (dose: 200.0 mg/kg/injection, schedule: Q01DX009 (ip), vehicle: Klucel (hydroxypropylcellulose) (HPC)): 92 % of control
T/C (dose: 200.0 mg/kg/injection, schedule: Q04DX003 (ip), vehicle: gum acacia): 86 % of control
T/C (dose: 400.0 mg/kg/injection, schedule: Q01DX009 (ip), vehicle: Klucel (hydroxypropylcellulose) (HPC)): 92 % of control
T/C (dose: 400.0 mg/kg/injection, schedule: Q04DX003 (ip), vehicle: gum acacia): 89 % of control

COc1c(Br)c(Br)c(Br)c(OC)c1OC
T/C [1]: 98 % of control
T/C (dose: 100.0 mg/kg/injection, schedule: Q01DX001 (ip), vehicle: carboxymethylcellulose (CMC)): 101 % of control
T/C [2]: 106 % of control
T/C (dose: 400.0 mg/kg/injection, schedule: Q01DX001 (ip), vehicle: carboxymethylcellulose (CMC)): 98 % of control

CC(C)NC(=O)NS(=O)(=O)c1ccc(N)cc1
T/C (dose: 100.0 mg/kg/injection, schedule: Q04DX003 (ip), vehicle: saline): 94 % of control
T/C (dose: 200.0 mg/kg/injection, schedule: Q04DX003 (ip), vehicle: saline): 103 % of control
T/C (dose: 400.0 mg/kg/injection, schedule: Q04DX003 (ip), vehicle: saline): 110 % of control

COc1ccc2c(c1OC)C(=O)O[C@@H]2[C@H]1c2c(cc3c(c2OC)OCO3)CCN1C
T/C (dose: 31.3 mg/kg/injection, schedule: Q01DX009 (ip), vehicle: saline): 95 % of control and 100 % of control (2×)
T/C [3]: 96 % of control
T/C (dose: 62.5 mg/kg/injection, schedule: Q01DX009 (ip), vehicle: saline): 94 % of control and 100 % of control (2×)
T/C [4]: 102 % of control
T/C (dose: 125.0 mg/kg/injection, schedule: Q01DX009 (ip), vehicle: saline): 96 % of control and 97 % of control and 91 % of control
T/C [5]: 107 % of control
T/C (dose: 250.0 mg/kg/injection, schedule: Q01DX009 (ip), vehicle: saline): 102 % of control and 104 % of control and 91 % of control
T/C [6]: 111 % of control

CS(=O)(=O)OCCF
T/C (dose: 0.25 mg/kg/injection, schedule: Q01DX009 (ip), vehicle: saline): 101 % of control
T/C (dose: 0.5 mg/kg/injection, schedule: Q01DX009 (ip), vehicle: saline): 103 % of control
T/C (dose: 1.0 mg/kg/injection, schedule: Q01DX009 (ip), vehicle: saline): 103 % of control
T/C (dose: 2.5 mg/kg/injection, schedule: Q01DX009 (ip), vehicle: carboxymethylcellulose (CMC)): 103 % of control
T/C (dose: 2.5 mg/kg/injection, schedule: Q01DX009 (ip), vehicle: saline): 103 % of control
T/C (dose: 5.0 mg/kg/injection, schedule: Q01DX009 (ip), vehicle: carboxymethylcellulose (CMC)): 108 % of control
T/C (dose: 6.25 mg/kg/injection, schedule: Q04DX003 (ip), vehicle: saline with Tween-80): 114 % of control
T/C (dose: 9.0 mg/kg/injection, schedule: Q01DX009 (ip), vehicle: saline): 92 % of control
T/C (dose: 10.5 mg/kg/injection, schedule: Q01DX015 (ip), vehicle: saline): 97 % of control
T/C (dose: 10.8 mg/kg/injection, schedule: Q01DX015 (ip), vehicle: saline): 100 % of control
T/C (dose: 12.5 mg/kg/injection, schedule: Q01DX001 (ip), vehicle: acetone): 103 % of control
T/C (dose: 12.5 mg/kg/injection, schedule: Q01DX009 (ip), vehicle: acetone): 106 % of control
T/C (dose: 18.0 mg/kg/injection, schedule: Q01DX015 (ip), vehicle: saline): 114 % of control
T/C (dose: 20.0 mg/kg/injection, schedule: Q01DX009 (ip), vehicle: carboxymethylcellulose (CMC)): 87 % of control
T/C (dose: 25.0 mg/kg/injection, schedule: Q01DX001 (ip), vehicle: acetone): 116 % of control
T/C (dose: 25.0 mg/kg/injection, schedule: Q01DX001 (ip), vehicle: saline): 94 % of control
T/C (dose: 30.0 mg/kg/injection, schedule: Q01DX001 (ip), vehicle: saline): 98 % of control
T/C (dose: 30.0 mg/kg/injection, schedule: Q01DX015 (ip), vehicle: saline): 113 % of control and 91 % of control
T/C (dose: 44.0 mg/kg/injection, schedule: Q01DX001 (ip), vehicle: saline): 106 % of control and 122 % of control
T/C (dose: 50.0 mg/kg/injection, schedule: Q01DX001 (ip), vehicle: acetone): 103 % of control
T/C [1]: 117 % of control
T/C [3]: 102 % of control and 109 % of control
T/C [2]: 97 % of control
T/C [6]: 87 % of control

C[N+](C)(C)c1ncncn1
T/C (dose: 12.0 mg/kg/injection, schedule: Q04DX003 (ip), vehicle: saline): 98 % of control
T/C (dose: 25.0 mg/kg/injection, schedule: Q04DX003 (ip), vehicle: saline): 98 % of control
T/C (dose: 50.0 mg/kg/injection, schedule: Q04DX003 (ip), vehicle: saline): 104 % of control

COc1ccc(CSSP(=S)(OC)c2ccc(OC)cc2)cc1 (configuration not stated)
T/C (dose: 100.0 mg/kg/injection, schedule: Q01DX009 (ip), vehicle: saline with Tween-80): 91 % of control
T/C (dose: 200.0 mg/kg/injection, schedule: Q01DX009 (ip), vehicle: saline with Tween-80): 95 % of control
T/C (dose: 400.0 mg/kg/injection, schedule: Q01DX009 (ip), vehicle: saline with Tween-80): 88 % of control

Clc1ccccc1N=C1NN(c2c3ccccc3nc3ccccc23)Nc2ccccc21
T/C (dose: 100.0 mg/kg/injection, schedule: Q04DX003 (ip), vehicle: acetone): 94 % of control
T/C (dose: 200.0 mg/kg/injection, schedule: Q04DX003 (ip), vehicle: acetone): 90 % of control
T/C (dose: 400.0 mg/kg/injection, schedule: Q04DX003 (ip), vehicle: acetone): 87 % of control

CC[C@@](O)(C(=O)NC)c1cc2n(c(=O)c1CO)Cc1cc3ccccc3nc1-2
T/C (dose: 2.3 mg/kg/injection, schedule: Q01DX015 (ip), vehicle: saline): 155 % of control
T/C (dose: 3.5 mg/kg/injection, schedule: Q01DX015 (ip), vehicle: saline): 172 % of control
T/C (dose: 4.0 mg/kg/injection, schedule: Q01DX001 (ip), vehicle: saline): 110 % of control
T/C (dose: 5.3 mg/kg/injection, schedule: Q01DX015 (ip), vehicle: saline): 102 % of control

CN(C(=O)CCCc1ccc(N(CCCl)CCCl)cc1)c1ccccc1
T/C (dose: 2.0 mg/kg/injection, schedule: Q12HX018 (ip), vehicle: Klucel (hydroxypropylcellulose) (HPC)): 100 % of control
T/C (dose: 4.0 mg/kg/injection, schedule: Q12HX018 (ip), vehicle: Klucel (hydroxypropylcellulose) (HPC)): 96 % of control
T/C (dose: 8.0 mg/kg/injection, schedule: Q12HX018 (ip), vehicle: Klucel (hydroxypropylcellulose) (HPC)): 107 % of control
T/C (dose: 8.0 mg/kg/injection, schedule: Q12HX018 (ip), vehicle: other): 110 % of control
T/C (dose: 10.0 mg/kg/injection, schedule: Q12HX018 (ip), vehicle: other): 101 % of control
T/C (dose: 12.0 mg/kg/injection, schedule: Q12HX018 (ip), vehicle: other): 100 % of control

[N-]=[N+]=NC(c1ccccc1)(c1ccccc1)c1ccccc1
T/C [7]: 97 % of control
T/C [8]: 97 % of control
T/C [9]: 97 % of control

O=NN1CCCC1C(=O)O (configuration not stated)
T/C [4]: 101 % of control
T/C [5]: 101 % of control and 93 % of control

O=NN(CCCl)C(=O)Nc1cccc([N+](=O)[O-])c1
T/C (dose: 12.0 mg/kg/injection, schedule: Q01DX001 (ip), vehicle: carboxymethylcellulose (CMC)): 152 % of control
T/C (dose: 18.0 mg/kg/injection, schedule: Q01DX001 (ip), vehicle: carboxymethylcellulose (CMC)): 156 % of control
T/C (dose: 26.0 mg/kg/injection, schedule: Q01DX001 (ip), vehicle: carboxymethylcellulose (CMC)): 176 % of control
T/C (dose: 40.0 mg/kg/injection, schedule: Q01DX001 (ip), vehicle: carboxymethylcellulose (CMC)): 174 % of control
T/C (dose: 60.0 mg/kg/injection, schedule: Q01DX001 (ip), vehicle: carboxymethylcellulose (CMC)): 91 % of control

FC(F)(F)c1cc(Br)c2ccc3ncccc3c2n1
T/C [7]: 111 % of control
T/C [8]: 107 % of control
T/C [9]: 96 % of control

Nc1ccccc1S.[Ag]
T/C [3]: 95 % of control
T/C [4]: 86 % of control
T/C [5]: 91 % of control
T/C [6]: 91 % of control
